Data as given in PMC10908709, “3-styrylcoumarin scaffold-based derivatives as a new approach for leishmaniasis intervention: biological and molecular modeling studies” (Journal of Parasitic Diseases: Official Organ of the Indian …, 2024).
Several values for one entry are separate records, joined by “and”; a condition that tells them apart may be missing. Equal entries are not always repeated.

What was measured:
[1] = tested on: axenic amastigote forms of L. panamensis; parameters: method as in Arango et al. 2010; conditions: ref Arango et al. 2010; cited from earlier work
[2] = tested on: intracellular amastigotes of L. (V) panamensis; assay: In vitro antileishmanial activity on intracellular amastigotes (GFP parasites, flow cytometry); assay type: cell-based, Leishmania (Viannia) panamensis; conditions: for EC50: read-out: Anti-leishmanial activity on intracellular amastigotes EC50 (converted); for SI (selectivity index = LC50/EC50): U-937 LC50 / amastigote EC50
Procedure: The activity of compounds was evaluated on intracellular amastigotes of L. (V) panamensis transfected with the green fluorescent protein gene (MHOM/CO/87/UA140-EGFP) (Pulido et al. [2012]). The effect of each compound was determined according to the inhibition of the infection evidenced by both, decrease of the infected cells and decrease of intracellular parasite amount. Briefly, U-937 human cells at a concentration of 3 × 10^5 cells/mL in RPMI 1640 containing 0.1 μg/mL of phorbol-12-myristate-13-acetate (PMA) were dispensed into each one of a 24-well cell culture plate and then infected with 5 day-old promastigotes in a 15:1 parasites per cell ratio. Plates were incubated at 34 °C, 5% CO2 during 3 h and cells were washed two times with PBS to eliminate non internalized parasites. One mL of fresh complete RPMI 1640 medium supplemented with 10% FBS and 1% antibiotics was added into each well, cells were incubated again to guarantee multiplication of intracellular parasites. After 24 h of infection, culture medium was replaced by fresh culture medium containing each compound at 50–6.12 and 1.56 μg/mL and plates were incubated at 37 °C, 5% CO2. After 72 h, inhibition of the infection was determined. For this, cells were removed from the bottom plate with a trypsin/EDTA (250 mg) solution; recovered cells were centrifuged at 1100 rpm during 10 min at 4 °C, the supernatant was discarded and cells were washed with 1 mL of cold PBS and centrifuged at 1100 rpm during 10 min at 4 °C. The supernatant was discarded and cells were suspended in 500 μL of PBS and analyzed by flow cytometry (FC 500MPL, Cytomics, Brea, CA, US). All determinations for each compound including standard drugs were carried out by triplicate, in two independent experiments. Activity of the tested compounds was carried out in parallel with infection progress in culture medium alone and in culture medium with amphotericin B as antileishmanial drugs (positive controls).
Antileishmanial activity was determined according to percentage of infected cells and parasite amount obtained for each experimental condition by flow cytometer. The percentage of infected cells was determined as the number of positive events by green fluorescence (parasites) in y-axis and Forward Scatte in x-axis. Then, the parasitic load in those infected cells was determined by a histogram of the mean fluorescence intensity (MFI) of those fluorescent parasites (Pulido et al. [2012]).
Parasitemia inhibition was calculated by Eq. 2, where the MFI of control corresponds to 100% of parasitemia. In turn, inhibition percentage corresponds to 100% Parasitemia.

[3] = In vitro cytotoxicity, MTT assay; assay type: cell-based; conditions: human
Procedure: (§1) Cytotoxic activity of the studied compounds was assessed in the human promonocytic U-937 cells (ATCC CRL-1593.2™) based on viability evaluated by the MTT (3-(4,5-dimethylthiazol-2-yl)-2,5-diphenyltetrazolium bromide) assay as described elsewhere (Taylor et al. [2011]). Briefly, U-937 cells grown in tissue flasks were harvested and washed with phosphate buffered saline (PBS) by centrifugation. Cells were counted and adjusted at 1 × 10^6 cells/mL of complete culture medium (RPMI-1640 supplemented with 10% Fetal Bovine Serum-FBS and 1% of antibiotics (100 ug/mL penicillin and 0.1 mg/mL streptomycin). One hundred µL of cell suspension were dispensed into each well of a 96-well cell-culture plate and then 100 µL of two-fold serial dilutions of the compounds (starting at 200 µg/mL) in complete RPMI 1640 medium were added. Plates were incubated at 37 °C, under 5% CO2 atmosphere during 72 h. Then, 10 µL of MTT solution (0.5 mg/mL) were added into each well, and plates were then incubated at 37 °C for 3 h. The formazan crystals were dissolved by adding 100 µL/well of dimethyl sulfoxide and 30 min incubation. Cell viability was determined according to the intensity of color (absorbance) registered as optical densities (O.D) obtained at 570 nm in a Varioskan™ Flash Multimode Reader-ThermoScientific, USA spectrophotometer. Cells cultured in absence of compounds were used as control of viability (negative control), while doxorrubicin was used as control for cytotoxic drugs. Non-specific absorbance was corrected by subtracting the O.D of the blank. Assays were conducted in two independent runs with three replicas per each concentration tested.
(§2) Cytotoxicity was determined according to cell growth (viability) and mortality percentages obtained for each isolated experiment (compounds, doxorubicin and culture medium). Results were expressed as 50 lethal concentrations (LC50), corresponding to the concentration necessary to eliminate 50% of cells, calculated by Probit analysis (Finney [1978]). Percentage of viability was calculated by Eq. 1, where the optical density (O.D) of control corresponds to 100% of viability (cell growth).1 %Mortality=1-O.D Exposed cells/O.D Control cells×100

[4] = tested on: intracellular amastigotes of L. (V) panamensis; assay: In vitro antileishmanial activity on intracellular amastigotes (GFP parasites, flow cytometry); assay type: cell-based, Leishmania (Viannia) panamensis; conditions: for inhibition at 20 µg/mL: U-937, 72 h, infected U-937 cells, read-out: Inhibition intracellular amastigotes growth (%)
[5] = tested on: CHO-K1 cells; parameters: method as in Herrera et al. 2018; conditions: previous study; ref Herrera et al. 2018; cited from earlier work
[6] = tested on: SW480 cells; parameters: method as in Herrera et al. 2018; conditions: previous study; ref Herrera et al. 2018; cited from earlier work
[7] = tested on: promastigote forms of L. amazonensis; parameters: method as in Rosa et al. 2017; conditions: ref Rosa et al. 2017; read-out: IC50 against promastigote forms of L. amazonensis; cited from earlier work
[8] = tested on: amastigote forms of L. amazonensis; parameters: method as in Rosa et al. 2017; conditions: ref Rosa et al. 2017; read-out: IC50 against amastigote forms of L. amazonensis; cited from earlier work
[9] = tested on: intracellular amastigotes of L. donovani; parameters: method as in Pierson et al. 2010; conditions: ref Pierson et al. 2010; cited from earlier work
[10] = tested on: U-937 cells; assay: In vitro cytotoxicity, MTT assay; assay type: cell-based; conditions: 72 h, MTT
Procedure: as §1, §2

## C=C(C)[C@H]1O[C@@H]1c1c(OC[C@H]2OC2(C)C)ccc2ccc(=O)oc12 (relative stereo) [B]
[1]
  EC50 against axenic amastigote forms of L. panamensis: 9.9 µg/mL

## C[C@@H]1[C@H](O)[C@@H](C)/C=C/C=C/C=C/C=C/C=C/C=C/C=C/[C@H](O[C@@H]2O[C@H](C)[C@@H](O)[C@H](N)[C@@H]2O)C[C@@H]2O[C@](O)(C[C@@H](O)C[C@@H](O)[C@H](O)CC[C@@H](O)C[C@@H](O)CC(=O)O[C@H]1C)C[C@H](O)[C@H]2C(=O)O [Amphotericin B, reference compound]
[2]; 72 h, Probit
  EC50: 0.05 µg/mL and 50 nM
[2]
  SI (selectivity index = LC50/EC50): 722
[3]
  CC50 at 72 h: 36.1 µg/mL and 39.1 µM
[4]; dose used 0.05 µg/ml, 72 h
  inhibition of growth at 0.05 µg/mL: 62.7 ± 1.4%

## COc1ccc2ccc(=O)oc2c1-c1cocc1C [C]
[1]
  EC50 against axenic amastigote forms of L. panamensis: 10.5 µg/mL

## CCCCCCCCOc1ccc2c(C)c(/C=C/c3ccc(OC)cc3)c(=O)oc2c1 [Compound 3]
[3]
  CC50 at 72 h: > 200 µg/mL and > 549 µM
[4]
  inhibition at 20 µg/mL: 0%

## CCCCCCCCOc1ccc2c(C)c(/C=C/c3ccc(OC)c(OC)c3)c(=O)oc2c1 [Compound 4]
[3]
  CC50 at 72 h: 26 µg/mL and 66 µM
[4]
  inhibition at 20 µg/mL: 32.5 ± 0.8%

## CCCCCCCCOc1ccc2c(C)c(/C=C/c3ccc(OC)cc3OC)c(=O)oc2c1 [Compound 5]
[3]
  CC50 at 72 h: > 200 µg/mL and > 507 µM
[4]
  inhibition at 20 µg/mL: 3.7 ± 0.8%

## CCCCCCCCOc1ccc2c(C)c(/C=C/c3ccc(O)c(OC)c3)c(=O)oc2c1 [Compound 6]
[2]; 72 h, Probit
  EC50: 15.4 µg/mL and 40.5 µM
[2]
  SI (selectivity index = LC50/EC50): 1.2
[2]; at 20 µg/ml, 72 h, infected U-937 cells
  Inhibition intracellular amastigotes growth (%): 83.5 ± 5.0%
[2]; read-out: IC50 against L. (V.) panamensis amastigotes (abstract)
  IC50: 40.5 µM
[3]
  CC50 at 72 h: 19.7 µg/mL and 51.8 µM
[4]
  inhibition at 20 µg/mL: > 83%
[5]
  IC50: 69.8 µM
[6]
  IC50: 26.1 µM

## CCCCCCCCOc1ccc2c(C)c(/C=C/c3cc(OC)ccc3OC)c(=O)oc2c1 [Compound 7]
[3]
  CC50 at 72 h: > 200 µg/mL and > 507 µM
[4]
  inhibition at 20 µg/mL: 7.1 ± 1.5%

## CCCCCCCCOc1ccc2c(C)c(/C=C/c3cc(OC)c(O)c(OC)c3)c(=O)oc2c1 [Compound 8]
[3]
  CC50 at 72 h: 1 µg/mL and 2.4 µM
[4]; dose used 1.0 µg/ml, 72 h
  inhibition of growth at 1 µg/mL: 0%

## CCCCCCCCOc1ccc2c(C)c(/C=C/c3ccc4c(c3)OCO4)c(=O)oc2c1 [Compound 9]
[3]
  CC50 at 72 h: > 200 µg/mL and > 529 µM
[4]
  inhibition at 20 µg/mL: 0%

## C=C(C)C1OC1c1c(OC)ccc2ccc(=O)oc12 (centres unmarked) [D]
[1]
  EC50 against axenic amastigote forms of L. panamensis: 14.1 µg/mL

## CC(=O)OC[C@H]1O[C@@H](Oc2ccc3c(-c4ccccc4)cc(=O)oc3c2)[C@H](OC(C)=O)[C@@H](OC(C)=O)[C@@H]1OC(C)=O [E]
[7]
  IC50: 10 µM
[8]
  IC50: 34.9 µM

## COc1ccc(-c2cc(=O)oc3cc(OC)c(OC)cc23)cc1OC [F]
[9]
  IC50: 1.1 µM

## Meglumine antimoniate
[2]; 72 h
  Inhibition intracellular amastigotes growth (%): 79.4 ± 2.1^ g %
[2]; 72 h, Probit
  Anti-leishmanial activity on intracellular amastigotes EC50: 9.4 ± 2.1 µg/mL
  EC50: 25.7 µM
[10]
  Cytotoxicity on U-937 cells LC50: 416.4 ± 66.6 µg/mL
[10]; read-out: Cytotoxicity on U-937 cells LC50 (converted)
  CC50: 1140 µM
